According to PubChem BioAssay (NCI):
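Exposure lasted 48 hours, with cells grown in 96-well plates and compounds tested at five concentrations. TGI denotes the concentration required for complete inhibition of growth.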

Experiments:
Assay in all cases: NCI tumour cell line growth inhibition, 48 h
MALME-3M melanoma = system: MALME-3M melanoma
ACHN renal = system: ACHN renal
UACC-257 melanoma = system: UACC-257 melanoma
HOP-92 NSCLC = system: HOP-92 NSCLC
KM12 colon = system: KM12 colon
NCI-H23 lung = system: NCI-H23 lung
SF-295 CNS = system: SF-295 CNS
OVCAR-8 ovarian = system: OVCAR-8 ovarian
SF-539 CNS = system: SF-539 CNS
SN12C renal = system: SN12C renal
UACC-62 melanoma = system: UACC-62 melanoma
OVCAR-5 ovarian = system: OVCAR-5 ovarian
MOLT-4 leukemia = system: MOLT-4 leukemia
HS 578T breast = system: HS 578T breast
MDA-N = system: MDA-N
CAKI-1 renal = system: CAKI-1 renal
MDA-MB-231 breast = system: MDA-MB-231 breast
SR leukemia = system: SR leukemia
A549 NSCLC = system: A549 NSCLC
M14 melanoma = system: M14 melanoma
SNB-19 CNS = system: SNB-19 CNS
SK-MEL-5 melanoma = system: SK-MEL-5 melanoma
A498 renal = system: A498 renal
HCT-15 colon = system: HCT-15 colon
SW-620 colon = system: SW-620 colon
COLO 205 colon = system: COLO 205 colon
SNB-75 CNS = system: SNB-75 CNS
786-0 renal = system: 786-0 renal
SK-OV-3 ovarian = system: SK-OV-3 ovarian
HCT-116 colon = system: HCT-116 colon
BT-549 breast = system: BT-549 breast
OVCAR-4 ovarian = system: OVCAR-4 ovarian
SK-MEL-28 melanoma = system: SK-MEL-28 melanoma
UO-31 renal = system: UO-31 renal
IGROV1 ovarian = system: IGROV1 ovarian
LOX IMVI melanoma = system: LOX IMVI melanoma
PC-3 prostate = system: PC-3 prostate
NCI-H460 lung = system: NCI-H460 lung
EKVX NSCLC = system: EKVX NSCLC
T-47D breast = system: T-47D breast
HOP-62 NSCLC = system: HOP-62 NSCLC
CCRF-CEM leukemia = system: CCRF-CEM leukemia
NCI-H226 lung = system: NCI-H226 lung
OVCAR-3 ovarian = system: OVCAR-3 ovarian
K-562 leukemia = system: K-562 leukemia
MCF7 breast = system: MCF7 breast
HT29 colon = system: HT29 colon
RXF 393 renal = system: RXF 393 renal
TK-10 renal = system: TK-10 renal
RPMI-8226 leukemia = system: RPMI-8226 leukemia
U251 CNS = system: U251 CNS
SK-MEL-2 melanoma = system: SK-MEL-2 melanoma
MDA-MB-435 = system: MDA-MB-435
SF-268 CNS = system: SF-268 CNS
NCI/ADR-RES ovarian = system: NCI/ADR-RES ovarian
HL-60(TB) leukemia = system: HL-60(TB) leukemia
NCI-H522 lung = system: NCI-H522 lung
HCC-2998 colon = system: HCC-2998 colon
DU-145 prostate = system: DU-145 prostate

Cc1nn(C(=O)c2ccccc2O)c2c1C(c1ccc3ccccc3c1O)SC(N)=N2 (stereo unspecified)
TGI (MALME-3M melanoma): > 10 µM | TGI (ACHN renal): > 10 µM | TGI (UACC-257 melanoma): > 10 µM | TGI (HOP-92 NSCLC): 4.03 µM | TGI (KM12 colon): > 10 µM | TGI (NCI-H23 lung): > 10 µM | TGI (SF-295 CNS): > 10 µM | TGI (OVCAR-8 ovarian): > 10 µM | TGI (SF-539 CNS): > 10 µM | TGI (SN12C renal): > 10 µM | TGI (UACC-62 melanoma): 4.63 µM | TGI (OVCAR-5 ovarian): > 10 µM | TGI (MOLT-4 leukemia): > 10 µM | TGI (HS 578T breast): > 10 µM | TGI (MDA-N): > 10 µM | TGI (CAKI-1 renal): > 10 µM | TGI (MDA-MB-231 breast): > 10 µM | TGI (SR leukemia): > 10 µM | TGI (A549 NSCLC): > 10 µM | TGI (M14 melanoma): > 10 µM | TGI (SNB-19 CNS): > 10 µM | TGI (SK-MEL-5 melanoma): 4.76 µM | TGI (A498 renal): > 10 µM | TGI (HCT-15 colon): > 10 µM | TGI (SW-620 colon): > 10 µM | TGI (COLO 205 colon): > 10 µM | TGI (SNB-75 CNS): > 10 µM | TGI (786-0 renal): > 10 µM | TGI (SK-OV-3 ovarian): > 10 µM | TGI (HCT-116 colon): > 10 µM | TGI (BT-549 breast): > 10 µM | TGI (OVCAR-4 ovarian): > 10 µM | TGI (SK-MEL-28 melanoma): > 10 µM | TGI (UO-31 renal): > 10 µM | TGI (IGROV1 ovarian): > 10 µM | TGI (LOX IMVI melanoma): > 10 µM | TGI (PC-3 prostate): > 10 µM | TGI (NCI-H460 lung): > 10 µM | TGI (EKVX NSCLC): > 10 µM | TGI (T-47D breast): 8.93 µM | TGI (HOP-62 NSCLC): > 10 µM | TGI (CCRF-CEM leukemia): > 10 µM | TGI (NCI-H226 lung): > 10 µM | TGI (OVCAR-3 ovarian): 9.61 µM | TGI (K-562 leukemia): > 10 µM | TGI (MCF7 breast): 7.32 µM | TGI (HT29 colon): > 10 µM | TGI (RXF 393 renal): > 10 µM | TGI (TK-10 renal): > 10 µM | TGI (RPMI-8226 leukemia): > 10 µM | TGI (U251 CNS): > 10 µM | TGI (SK-MEL-2 melanoma): > 10 µM | TGI (MDA-MB-435): > 10 µM | TGI (SF-268 CNS): > 10 µM

Cc1ccc(-n2c(=O)c3nn4c(=O)n(-c5ccc(C)cc5)c(=O)c4nn3c2=O)cc1
TGI (MALME-3M melanoma): > 100 µM | TGI (ACHN renal): > 100 µM | TGI (UACC-257 melanoma): > 100 µM | TGI (HOP-92 NSCLC): > 100 µM | TGI (KM12 colon): > 100 µM | TGI (NCI-H23 lung): > 100 µM | TGI (NCI/ADR-RES ovarian): > 100 µM | TGI (SF-295 CNS): > 100 µM | TGI (OVCAR-8 ovarian): > 100 µM | TGI (SF-539 CNS): > 100 µM | TGI (SN12C renal): > 100 µM | TGI (UACC-62 melanoma): > 100 µM | TGI (OVCAR-5 ovarian): > 100 µM | TGI (MOLT-4 leukemia): > 100 µM | TGI (HS 578T breast): > 100 µM | TGI (MDA-N): > 100 µM | TGI (CAKI-1 renal): > 100 µM | TGI (SR leukemia): > 100 µM | TGI (A549 NSCLC): > 100 µM | TGI (M14 melanoma): > 100 µM | TGI (SNB-19 CNS): > 100 µM | TGI (SK-MEL-5 melanoma): > 100 µM | TGI (HCT-15 colon): > 100 µM | TGI (SW-620 colon): > 100 µM | TGI (COLO 205 colon): > 100 µM | TGI (SNB-75 CNS): > 100 µM | TGI (786-0 renal): > 100 µM | TGI (SK-OV-3 ovarian): > 100 µM | TGI (HCT-116 colon): > 100 µM | TGI (BT-549 breast): > 100 µM | TGI (OVCAR-4 ovarian): > 100 µM | TGI (SK-MEL-28 melanoma): > 100 µM | TGI (UO-31 renal): > 100 µM | TGI (IGROV1 ovarian): > 100 µM | TGI (LOX IMVI melanoma): > 100 µM | TGI (PC-3 prostate): > 100 µM | TGI (NCI-H460 lung): > 100 µM | TGI (HL-60(TB) leukemia): > 100 µM | TGI (EKVX NSCLC): > 100 µM | TGI (T-47D breast): > 100 µM | TGI (HOP-62 NSCLC): > 100 µM | TGI (NCI-H522 lung): > 100 µM | TGI (CCRF-CEM leukemia): > 100 µM | TGI (NCI-H226 lung): > 100 µM | TGI (OVCAR-3 ovarian): > 100 µM | TGI (K-562 leukemia): > 100 µM | TGI (MCF7 breast): > 100 µM | TGI (HT29 colon): > 100 µM | TGI (RXF 393 renal): > 100 µM | TGI (HCC-2998 colon): > 100 µM | TGI (TK-10 renal): > 100 µM | TGI (RPMI-8226 leukemia): > 100 µM | TGI (DU-145 prostate): > 100 µM | TGI (U251 CNS): > 100 µM | TGI (SK-MEL-2 melanoma): > 100 µM | TGI (MDA-MB-435): > 100 µM | TGI (SF-268 CNS): > 100 µM
